Assay in all cases: NCI anticancer screen, dose series, 48 h
Experiment [1] has as its system ACHN renal.
Experiment [2] has as its system CCRF-CEM leukemia.
The subject of experiment [3] is HCT-15 colon.
For experiment [4], the system named is HL-60(TB) leukemia.
Experiment [5] concerns HT29 colon.
Experiment [6] relates to MALME-3M melanoma.
Experiment [7] relates to MDA-MB-435.
In experiment [8] the test system is MOLT-4 leukemia.
For experiment [9], the system named is NCI-H226 lung.
Experiment [10] concerns SK-OV-3 ovarian.
Experiment [11] concerns SNB-19 CNS.
Experiment [12] relates to UO-31 renal.
Experiment [13] deals with BT-549 breast.

The structures appear in SMILES notation.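 Protocol summary: plate cells (96-well), add compound at 5 concentrations, incubate 48 h, interpolate endpoints linearly. At the TGI there is no net growth.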

As for `COc1ccc(NC2=NCCO2)c2ccccc12`, the TGI in [1], in [2], in experiment [3], in [4], in experiment [5] and in experiment [6] was over 10 µM throughout. The TGI in experiment [7], in [8], in experiment [9], in experiment [10], in [11] and in [12] was over 10 µM each time.

Consider `CCC(=O)NCCc1c[nH]c2ccc(OC)cc12`, for which the TGI in experiment [1], in [13], in experiment [2], in experiment [3], in experiment [5] and in [6] was over 100 µM each time. Further, the TGI in experiment [7], in [8], in experiment [9], in experiment [10], in experiment [11] and in [12] was over 100 µM in each case.

Consider `C[N+]1(C)CN(c2ccccc2)C2(CCN(CCCC(=O)c3cccs3)CC2)C1=O`, for which the TGI in [1], in experiment [2], in experiment [3], in experiment [4], in experiment [5] and in experiment [6] was over 100 µM each time. Besides, the TGI in experiment [7], in experiment [8], in experiment [9], in experiment [10], in [11] and in experiment [12] was over 100 µM in each case.

As to `CSC(=NCCN=C(NS(=O)(=O)c1ccc(Cl)cc1)SC)NS(=O)(=O)c1ccc(Cl)cc1`, the TGI in experiment [1], in experiment [2], in [3], in experiment [4], in experiment [5] and in [6] was over 100 µM each time. Moreover, the TGI in experiment [7] was over 100 µM; in [8] it was over 100 µM; in experiment [10], 59.1 µM; in experiment [11], over 100 µM; in experiment [12] it was over 100 µM.

Take `Cc1ccc(S(=O)(=O)N/N=C2\C=C[C@]3(CC2)C(=O)N(C)c2ccccc23)cc1`: the TGI in [1], in experiment [2], in [3], in experiment [4], in experiment [7] and in experiment [8] was over 100 µM in each case. The TGI in experiment [9], in experiment [10], in [11] and in experiment [12] was over 100 µM each time.

For `Cc1cc2c(-c3ccccc3)cc(=O)[nH]c2cc1N`, the TGI in [1], in experiment [13], in experiment [2], in [3], in [5] and in [7] was over 100 µM in each case. In addition, the TGI in experiment [8], in [9], in experiment [11] and in experiment [12] was over 100 µM each time.

In the case of `N#Cc1c(C#N)c(SSc2c(C#N)c(C#N)c(N)n2-c2ccccc2)n(-c2ccccc2)c1N`, the TGI in experiment [1] was 21.4 µM; in experiment [13] it was 30.7 µM; in experiment [3] it was over 24.4 µM; in experiment [5], over 59.1 µM; in experiment [6] it was 3.26 µM; in [7], 29.2 µM. For the same compound, the TGI is over 100 µM in experiment [8]; 54.3 µM in [9]; 37.5 µM in [10]; over 63.1 µM in [11]; 3.08 µM in experiment [12].

Take `CCOC(=O)CCC(NC(=O)OCc1ccccc1)C(=O)NC(CCC(=O)OCC)C(=O)NC(CCC(=O)OCC)C(=O)NC(CCC(=O)OCC)C(=O)NC(CCC(=O)OCC)C(=O)OCC` (stereo unspecified): the TGI in [1], in experiment [13], in [2], in experiment [3], in experiment [5] and in [6] was over 100 µM in each case. For the same compound, the TGI in experiment [7], in [8], in [10] and in experiment [12] was over 100 µM each time.

Regarding `S=C1C=C(c2ccccc2)Sc2ccccc2N1`, the TGI in experiment [1], in [13], in experiment [2], in [3], in experiment [4] and in experiment [5] was over 100 µM throughout. Besides, the TGI in experiment [6], in experiment [8], in [9], in experiment [10], in [11] and in [12] was over 100 µM each time.

Consider `Nc1ncc(Cc2nc3ccccc3s2)s1`, for which the TGI in experiment [1], in experiment [2], in [3], in [4], in [5] and in experiment [6] was over 100 µM in each case. The TGI in [7] was over 100 µM; in experiment [8], over 100 µM; in experiment [9], 92.8 µM; in experiment [10] it was over 100 µM; in experiment [11] it was over 100 µM; in experiment [12], over 100 µM.

For the compound `O=C(NCc1ccccc1)c1cnc(Cl)cn1`, the TGI in experiment [1] was 44.1 µM; in [2], 62.6 µM; in [3], 82.4 µM; in [4], over 100 µM; in [5], over 100 µM; in experiment [6], over 100 µM. The TGI in [7] is over 100 µM; in experiment [8] it was over 100 µM; in experiment [9], over 100 µM; in experiment [10], over 100 µM; in [11], over 100 µM; in experiment [12], 36.3 µM.

`CSCCCCCCCCCCOc1ccc(C=C2C(=C(C#N)C#N)c3ccccc3C2=C(C#N)C#N)cc1`: the TGI in [1] worked out at 29.5 µM; in experiment [2], 12.2 µM; in [3], 46.8 µM; in experiment [4], 4.34 µM; in [5] it was 31 µM; in experiment [7], 32.9 µM. The TGI in experiment [8] was determined as 64.5 µM; in experiment [9], 79.9 µM; in experiment [10], 32.1 µM; in experiment [12], 29.9 µM.

Consider `COCN1C(=O)[C@@H]2CCCN2C(=O)c2cc([N+](=O)[O-])ccc21`, for which the TGI in experiment [1], in [13], in experiment [3], in experiment [5], in [6] and in experiment [7] was over 100 µM in each case. In addition, the TGI in experiment [9], in [10], in experiment [11] and in experiment [12] was over 100 µM in each case.

For the compound `Cc1n[nH]c(=O)n1N=C(c1ccccc1)c1ccccc1`, the TGI in experiment [1], in [13], in experiment [2], in [3], in experiment [5] and in experiment [6] was over 100 µM in each case. In addition, the TGI in [7], in experiment [8], in experiment [9], in experiment [11] and in [12] was over 100 µM in each case.

Regarding `CC12ON=C(c3ccccc3)N1C=CN1C(c3ccccc3)=NOC12` (stereo unspecified), the TGI in [1], in experiment [13], in experiment [3], in experiment [6], in [9] and in experiment [10] was over 100 µM each time. For the same compound, the TGI in [11] and in experiment [12] was over 100 µM each time.

On to `CC(C)(C)C=C=C(C(C)(C)C)P(=O)(O)O`, for which the TGI in experiment [1], in experiment [3], in experiment [4], in experiment [5], in experiment [6] and in [7] was over 100 µM each time. Also, the TGI in [9], in [10] and in experiment [11] was over 100 µM in each case.

In the case of `O=C(/C=C/c1ccc(Cl)c(Cl)c1)Oc1ccc(/C=C2\CCCCC2=O)cc1`, the TGI in experiment [1], in experiment [2], in [3], in [4], in experiment [5] and in experiment [7] was over 100 µM in each case. Further, the TGI in [8] was 72.1 µM; in experiment [11] it was over 100 µM; in [12], over 100 µM.

Regarding `Cc1ccc(/C=N/Nc2ncccn2)s1`, the TGI in experiment [1], in experiment [2], in experiment [3], in experiment [5], in experiment [6] and in [7] was over 100 µM throughout. Also, the TGI in experiment [9], in experiment [10], in experiment [11] and in [12] was over 100 µM in each case.

As for `Cc1cc(=Nc2ccc3c(c2)c(N)cc(C)[n+]3C)nc(N)n1C`, the TGI in experiment [1], in experiment [13], in [2], in experiment [3], in experiment [5] and in [6] was over 100 µM in each case. For the same compound, the TGI in experiment [7], in [8], in experiment [10], in experiment [11] and in experiment [12] was over 100 µM throughout.

As to `CC(C)[Si](OC1=CCCCCC12C(=O)N(C)c1ccccc12)(C(C)C)C(C)C` (stereo unspecified), the TGI is 35.9 µM in experiment [1]; 36.5 µM in experiment [2]; 33.8 µM in experiment [3]; 38.9 µM in [4]; 41.1 µM in [5]; 45.8 µM in experiment [6]. Moreover, the TGI in [7] is 67.3 µM; in [8], over 100 µM; in experiment [9] it was 39 µM; in experiment [10] it was 46.6 µM; in [11], 29.5 µM; in experiment [12] it was 36.7 µM.

With `CCC1(C)N=C(C(N)=O)c2ncn(N=C(C)C)c2N1` (stereo unspecified), the TGI in experiment [1], in experiment [2], in experiment [3], in experiment [4], in experiment [5] and in [6] was over 100 µM each time. Besides, the TGI in experiment [7], in experiment [9], in [10] and in experiment [11] was over 100 µM in each case.

In the case of `COC(=O)C1=C(O)C(C(=O)OC)[C@]2(O)[C@H](C(=O)OC)[C@H]1C[C@@H](c1ccc(OC)cc1)[C@H]2C(=O)OC` (stereo partly specified), the TGI in experiment [1] is 37.6 µM; in [13], over 100 µM; in [3], over 100 µM; in [5] it was 97.7 µM; in [6], over 100 µM; in experiment [7], 29 µM. In addition, the TGI in experiment [8] was 68.1 µM; in [9], over 100 µM; in [10] it was 65.5 µM; in experiment [11] it was 79.8 µM; in experiment [12], 34.9 µM.

As for `C[C@@H]1OC(=O)C[C@H]2CC(=O)N(CCc3cn(S(=O)(=O)C(F)(F)F)c4ccccc34)C[C@@H]21`, the TGI in [1], in [13], in experiment [2], in [3], in [5] and in experiment [6] was over 100 µM throughout. For the same compound, the TGI in experiment [7], in [8], in experiment [10], in [11] and in experiment [12] was over 100 µM throughout.

Regarding `C[C@@H]1CCC2[C@@H](C)C(=O)O[C@@H]3C4C[C@@H]1[C@@]23OO[C@@]4(C)O` (stereo partly specified), the TGI in experiment [1], in [13], in [2], in experiment [3], in experiment [5] and in [6] was over 100 µM each time. Also, the TGI was over 100 µM in experiment [7], over 100 µM in [8], over 100 µM in experiment [11] and 94 µM in experiment [12].

As to `CCCCCCCCCN1CCC(=O)C(C(=O)OC)C1` (stereo unspecified), the TGI worked out at 21 µM in [1]; 31.2 µM in [2]; 26.9 µM in experiment [3]; 10.9 µM in experiment [4]; 22.7 µM in experiment [5]; 28.5 µM in experiment [7]. In addition, the TGI in experiment [8] turned out to be 54.6 µM; in [9], 27.5 µM; in [10], 31.1 µM; in [12], 22 µM.

(Values after PubChem BioAssay (NCI).)
